Experimental data as given in publication PMC9234961 (Journal of Medicinal Chemistry, 2022).

Assays:
kinases (468) [1] = target: kinases (468) (Homo sapiens, UniProt Q8N4C8); details: MINK (MINK1); 1000 nM
kinases (468) [2] = target: kinases (468) (Homo sapiens, UniProt Q12852); details: DLK (MAP3K12); 1000 nM
kinases (468) [3] = target: kinases (468) (Homo sapiens, UniProt Q9UPE1); details: kinase SRPK3 (Entrez SRPK3); compound concentration 1000 nM
kinases (468) [4] = target: kinases (468) (Homo sapiens, UniProt P51451); details: BLK; 1000 nM
kinases (468) [5] = target: kinases (468) (Homo sapiens, UniProt P42336, M1043I); details: PIK3CA(M1043I); 1000 nM
kinases (468) [6] = target: kinases (468) (Homo sapiens, UniProt P22694); details: PKAC-beta (PRKACB); 1000 nM
kinases (468) [7] = target: kinases (468) (Homo sapiens, UniProt P08581, M1250T); details: MET(M1250T); 1000 nM
kinases (468) [8] = target: kinases (468) (Homo sapiens, UniProt Q86YV6); details: MYLK4; 1000 nM
kinases (468) [9] = target: kinases (468) (Homo sapiens, UniProt Q15208); details: NDR1 (STK38); 1000 nM
kinases (468) [10] = target: kinases (468) (Homo sapiens, UniProt Q32MK0); details: MLCK (MYLK3); 1000 nM
kinases (468) [11] = target: kinases (468) (Homo sapiens, UniProt P06239); details: LCK; 1000 nM
kinases (468) [12] = target: kinases (468) (Homo sapiens, UniProt P29376); details: LTK; 1000 nM
kinases (468) [13] = target: kinases (468) (Homo sapiens, UniProt P36894); details: BMPR1A; 1000 nM
kinases (468) [14] = target: kinases (468) (Homo sapiens, UniProt Q56UN5); details: kinase YSK4 (Entrez MAP3K19); compound concentration 1000 nM
kinases (468) [15] = target: kinases (468) (Homo sapiens, UniProt Q9H2G2); details: kinase SLK (Entrez SLK); compound concentration 1000 nM
kinases (468) [16] = target: kinases (468) (Homo sapiens, UniProt O75747); details: PIK3C2G; 1000 nM
kinases (468) [17] = target: kinases (468) (Homo sapiens, UniProt Q9P286); details: PAK7; 1000 nM
kinases (468) [18] = target: kinases (468) (Homo sapiens, UniProt Q8IVH8); details: MAP4K3; 1000 nM
kinases (468) [19] = target: kinases (468) (Homo sapiens, UniProt Q15835); details: GRK1; 1000 nM
kinases (468) [20] = target: kinases (468) (Homo sapiens, UniProt P42681); details: kinase TXK (Entrez TXK); compound concentration 1000 nM
kinases (468) [21] = target: kinases (468) (Homo sapiens, UniProt Q00536); details: PCTK1 (CDK16); 1000 nM
kinases (468) [22] = target: kinases (468) (Homo sapiens, UniProt Q9BX84); details: kinase TRPM6 (Entrez TRPM6); compound concentration 1000 nM
kinases (468) [23] = target: kinases (468) (Homo sapiens, UniProt P10721, T670I/V559D); details: KIT(V559D,T670I); 1000 nM
kinases (468) [24] = target: kinases (468) (Homo sapiens, UniProt Q8TF76); details: HASPIN (GSG2); 1000 nM
kinases (468) [25] = target: kinases (468) (Homo sapiens, UniProt O14936); details: CASK; 1000 nM
kinases (468) [26] = target: kinases (468) (Homo sapiens, UniProt Q8IY84); details: NIM1 (MGC42105); 1000 nM
kinases (468) [27] = target: kinases (468) (Homo sapiens, UniProt O76039); details: CDKL5; 1000 nM
kinases (468) [28] = target: kinases (468) (Homo sapiens, UniProt O75914); details: PAK3; 1000 nM
kinases (468) [29] = target: kinases (468) (Homo sapiens, UniProt P08922); details: kinase ROS1 (Entrez ROS1); compound concentration 1000 nM
kinases (468) [30] = target: kinases (468) (Homo sapiens, UniProt P36507); details: MEK2 (MAP2K2); 1000 nM
kinases (468) [31] = target: kinases (468) (Homo sapiens, UniProt O94804); details: LOK (STK10); 1000 nM
kinases (468) [32] = target: kinases (468) (Homo sapiens, UniProt P43405); details: kinase SYK (Entrez SYK); compound concentration 1000 nM
kinases (468) [33] = target: kinases (468) (Homo sapiens, UniProt Q9BUB5); details: MKNK1; 1000 nM
kinases (468) [34] = target: kinases (468) (Homo sapiens, UniProt P08631); details: HCK; 1000 nM

Chain of kinases (468) (Homo sapiens, UniProt Q56UN5) (Q56UN5 whole entry): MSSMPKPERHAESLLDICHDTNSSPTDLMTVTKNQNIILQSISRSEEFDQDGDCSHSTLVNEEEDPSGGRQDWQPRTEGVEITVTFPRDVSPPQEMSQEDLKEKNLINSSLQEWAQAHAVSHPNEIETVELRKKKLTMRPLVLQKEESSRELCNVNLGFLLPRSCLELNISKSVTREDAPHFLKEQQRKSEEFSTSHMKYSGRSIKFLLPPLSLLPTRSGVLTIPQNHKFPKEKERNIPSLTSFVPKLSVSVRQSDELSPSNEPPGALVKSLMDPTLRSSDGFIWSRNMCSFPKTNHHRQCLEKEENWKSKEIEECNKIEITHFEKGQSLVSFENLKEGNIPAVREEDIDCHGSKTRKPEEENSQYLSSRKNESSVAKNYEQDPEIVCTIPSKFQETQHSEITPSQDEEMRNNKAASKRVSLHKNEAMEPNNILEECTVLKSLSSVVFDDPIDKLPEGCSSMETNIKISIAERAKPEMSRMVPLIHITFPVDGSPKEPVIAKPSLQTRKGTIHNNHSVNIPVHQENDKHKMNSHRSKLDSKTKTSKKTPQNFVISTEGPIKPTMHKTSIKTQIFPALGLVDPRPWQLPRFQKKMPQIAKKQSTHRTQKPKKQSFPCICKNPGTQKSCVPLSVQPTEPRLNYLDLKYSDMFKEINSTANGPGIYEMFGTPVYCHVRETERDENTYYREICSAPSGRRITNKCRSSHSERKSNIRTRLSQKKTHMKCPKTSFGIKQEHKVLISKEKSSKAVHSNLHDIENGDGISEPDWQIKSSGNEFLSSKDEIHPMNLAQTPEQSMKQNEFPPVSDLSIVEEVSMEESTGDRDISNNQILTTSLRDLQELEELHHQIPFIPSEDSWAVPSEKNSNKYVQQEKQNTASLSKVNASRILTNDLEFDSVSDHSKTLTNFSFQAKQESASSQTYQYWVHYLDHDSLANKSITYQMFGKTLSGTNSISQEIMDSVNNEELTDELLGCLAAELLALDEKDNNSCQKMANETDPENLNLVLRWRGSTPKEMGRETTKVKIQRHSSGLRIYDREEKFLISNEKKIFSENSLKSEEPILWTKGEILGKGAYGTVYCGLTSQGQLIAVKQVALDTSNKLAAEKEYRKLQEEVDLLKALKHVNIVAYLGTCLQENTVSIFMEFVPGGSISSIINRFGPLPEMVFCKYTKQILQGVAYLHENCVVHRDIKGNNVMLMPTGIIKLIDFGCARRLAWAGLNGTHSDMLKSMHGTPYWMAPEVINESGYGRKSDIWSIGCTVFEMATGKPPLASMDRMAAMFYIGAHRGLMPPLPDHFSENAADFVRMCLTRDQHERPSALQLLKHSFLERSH
Chain of kinases (468) (Homo sapiens, UniProt Q86YV6) (Q86YV6 whole entry): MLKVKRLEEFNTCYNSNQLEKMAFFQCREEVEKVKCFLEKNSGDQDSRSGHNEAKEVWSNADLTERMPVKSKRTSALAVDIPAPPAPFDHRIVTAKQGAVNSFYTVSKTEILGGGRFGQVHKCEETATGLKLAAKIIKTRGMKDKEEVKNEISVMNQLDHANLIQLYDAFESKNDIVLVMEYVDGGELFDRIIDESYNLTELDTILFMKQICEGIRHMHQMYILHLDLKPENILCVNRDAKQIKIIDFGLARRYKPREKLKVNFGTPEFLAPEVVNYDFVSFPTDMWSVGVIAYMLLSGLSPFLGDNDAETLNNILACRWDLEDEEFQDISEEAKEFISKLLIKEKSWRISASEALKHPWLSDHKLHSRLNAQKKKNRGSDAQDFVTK
Chain of kinases (468) (Homo sapiens, UniProt Q9BUB5) (Q9BUB5 whole entry): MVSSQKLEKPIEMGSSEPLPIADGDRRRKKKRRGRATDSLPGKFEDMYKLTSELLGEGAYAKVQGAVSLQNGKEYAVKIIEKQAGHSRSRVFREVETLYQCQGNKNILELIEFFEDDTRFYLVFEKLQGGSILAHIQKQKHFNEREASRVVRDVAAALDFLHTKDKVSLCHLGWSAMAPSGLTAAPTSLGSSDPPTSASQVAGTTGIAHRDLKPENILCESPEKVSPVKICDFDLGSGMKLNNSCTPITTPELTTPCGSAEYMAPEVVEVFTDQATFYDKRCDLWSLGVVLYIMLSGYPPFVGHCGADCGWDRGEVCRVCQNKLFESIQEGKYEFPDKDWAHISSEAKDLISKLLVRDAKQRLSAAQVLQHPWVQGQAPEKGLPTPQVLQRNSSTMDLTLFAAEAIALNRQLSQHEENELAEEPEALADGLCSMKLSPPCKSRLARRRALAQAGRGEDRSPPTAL
Chain of kinases (468) (Homo sapiens, UniProt O75747) (O75747 whole entry): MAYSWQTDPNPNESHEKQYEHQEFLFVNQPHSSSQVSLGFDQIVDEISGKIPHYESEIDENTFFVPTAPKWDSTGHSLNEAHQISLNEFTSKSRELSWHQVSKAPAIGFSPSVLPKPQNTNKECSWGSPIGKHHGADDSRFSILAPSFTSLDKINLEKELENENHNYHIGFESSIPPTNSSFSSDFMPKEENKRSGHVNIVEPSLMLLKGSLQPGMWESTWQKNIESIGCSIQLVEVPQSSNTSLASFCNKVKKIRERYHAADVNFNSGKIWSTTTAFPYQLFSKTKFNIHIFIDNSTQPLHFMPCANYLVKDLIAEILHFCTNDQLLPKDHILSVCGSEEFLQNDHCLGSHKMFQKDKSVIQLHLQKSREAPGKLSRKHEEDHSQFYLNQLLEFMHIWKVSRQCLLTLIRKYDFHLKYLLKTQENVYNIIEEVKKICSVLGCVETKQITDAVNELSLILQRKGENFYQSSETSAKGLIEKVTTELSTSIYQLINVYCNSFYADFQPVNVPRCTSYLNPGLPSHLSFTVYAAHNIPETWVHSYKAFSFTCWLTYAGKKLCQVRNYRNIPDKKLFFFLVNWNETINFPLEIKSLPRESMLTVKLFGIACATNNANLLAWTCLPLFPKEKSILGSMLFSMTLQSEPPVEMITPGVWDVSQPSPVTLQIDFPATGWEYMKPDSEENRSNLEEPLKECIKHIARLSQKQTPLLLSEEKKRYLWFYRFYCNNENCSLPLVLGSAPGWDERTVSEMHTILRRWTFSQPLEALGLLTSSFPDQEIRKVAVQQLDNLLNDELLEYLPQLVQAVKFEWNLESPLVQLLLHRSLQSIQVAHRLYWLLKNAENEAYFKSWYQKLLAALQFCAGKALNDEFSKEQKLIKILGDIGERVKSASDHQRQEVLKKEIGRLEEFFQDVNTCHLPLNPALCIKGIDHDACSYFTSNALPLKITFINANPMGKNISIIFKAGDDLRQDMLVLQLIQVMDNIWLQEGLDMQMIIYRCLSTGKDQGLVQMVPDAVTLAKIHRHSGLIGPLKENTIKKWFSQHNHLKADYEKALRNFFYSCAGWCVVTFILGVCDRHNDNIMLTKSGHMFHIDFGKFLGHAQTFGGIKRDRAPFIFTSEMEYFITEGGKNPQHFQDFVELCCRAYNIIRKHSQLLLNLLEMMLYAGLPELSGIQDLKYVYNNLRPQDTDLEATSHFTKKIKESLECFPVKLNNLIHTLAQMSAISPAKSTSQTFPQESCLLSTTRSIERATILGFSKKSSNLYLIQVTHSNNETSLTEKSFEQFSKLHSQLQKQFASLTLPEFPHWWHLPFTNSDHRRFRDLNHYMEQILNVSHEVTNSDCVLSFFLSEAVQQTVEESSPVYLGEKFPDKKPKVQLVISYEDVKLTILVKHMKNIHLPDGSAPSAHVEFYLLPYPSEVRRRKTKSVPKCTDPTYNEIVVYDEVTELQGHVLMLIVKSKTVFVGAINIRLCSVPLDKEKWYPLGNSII
Chain of kinases (468) (Homo sapiens, UniProt P29376) (P29376 17-864): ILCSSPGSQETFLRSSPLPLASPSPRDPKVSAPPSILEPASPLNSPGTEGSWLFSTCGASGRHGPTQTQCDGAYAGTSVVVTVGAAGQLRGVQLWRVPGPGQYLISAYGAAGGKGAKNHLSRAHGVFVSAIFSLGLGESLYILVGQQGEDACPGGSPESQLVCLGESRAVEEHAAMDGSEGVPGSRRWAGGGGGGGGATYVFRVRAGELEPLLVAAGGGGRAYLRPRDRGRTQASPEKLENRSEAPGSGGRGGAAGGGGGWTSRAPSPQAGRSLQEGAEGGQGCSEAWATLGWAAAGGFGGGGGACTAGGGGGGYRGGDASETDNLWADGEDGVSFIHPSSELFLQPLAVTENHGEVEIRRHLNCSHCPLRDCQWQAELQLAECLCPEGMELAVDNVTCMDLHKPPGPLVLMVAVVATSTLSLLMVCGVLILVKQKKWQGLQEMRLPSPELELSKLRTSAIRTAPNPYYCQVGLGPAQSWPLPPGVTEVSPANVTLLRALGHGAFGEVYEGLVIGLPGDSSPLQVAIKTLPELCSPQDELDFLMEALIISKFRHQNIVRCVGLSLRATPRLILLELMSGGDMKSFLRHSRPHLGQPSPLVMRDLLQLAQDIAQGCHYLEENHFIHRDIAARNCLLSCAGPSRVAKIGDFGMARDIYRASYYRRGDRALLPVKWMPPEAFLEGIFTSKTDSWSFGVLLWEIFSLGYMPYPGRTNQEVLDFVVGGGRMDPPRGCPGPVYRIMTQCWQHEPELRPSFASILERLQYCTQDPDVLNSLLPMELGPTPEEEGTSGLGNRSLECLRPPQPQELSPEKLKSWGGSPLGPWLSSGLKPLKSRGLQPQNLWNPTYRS
Chain of kinases (468) (Homo sapiens, UniProt Q8IY84) (Q8IY84 whole entry): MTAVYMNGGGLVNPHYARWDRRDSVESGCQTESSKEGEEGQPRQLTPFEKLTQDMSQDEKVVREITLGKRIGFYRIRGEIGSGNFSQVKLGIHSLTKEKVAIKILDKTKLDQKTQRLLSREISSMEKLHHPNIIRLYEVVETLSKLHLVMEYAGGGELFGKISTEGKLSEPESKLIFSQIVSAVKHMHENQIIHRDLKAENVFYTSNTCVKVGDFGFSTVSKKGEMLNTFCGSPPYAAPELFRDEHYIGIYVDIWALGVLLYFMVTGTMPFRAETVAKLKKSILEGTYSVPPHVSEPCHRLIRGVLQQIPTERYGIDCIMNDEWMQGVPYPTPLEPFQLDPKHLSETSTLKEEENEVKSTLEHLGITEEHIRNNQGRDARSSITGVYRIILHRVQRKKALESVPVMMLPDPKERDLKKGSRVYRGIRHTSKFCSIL

C[C@H]1C[C@@H](O)CN(c2ncc(Cl)c(Nc3ccc4c(c3)c3c(c(=O)n4C)OCC(F)(F)[C@H](C4CC4)N3)n2)C1 [CCT373566_9A]
Percent Control (kinases (468) [1]): 87%
Percent Control (kinases (468) [2]): 96%
Percent Control (kinases (468) [3]): 90%
Percent Control (kinases (468) [4]): 99%
Percent Control (kinases (468) [5]): 89%
Percent Control (kinases (468) [6]): 80%
Percent Control (kinases (468) [7]): 100%
Percent Control (kinases (468) [8]): 100%
Percent Control (kinases (468) [9]): 100%
Percent Control (kinases (468) [10]): 100%
Percent Control (kinases (468) [11]): 100%
Percent Control (kinases (468) [12]): 100%
Percent Control (kinases (468) [13]): 100%
Percent Control (kinases (468) [14]): 100%
Percent Control (kinases (468) [15]): 100%
Percent Control (kinases (468) [16]): 86%
Percent Control (kinases (468) [17]): 96%
Percent Control (kinases (468) [18]): 100%
Percent Control (kinases (468) [19]): 100%
Percent Control (kinases (468) [20]): 99%
Percent Control (kinases (468) [21]): 100%
Percent Control (kinases (468) [22]): 95%
Percent Control (kinases (468) [23]): 98%
Percent Control (kinases (468) [24]): 100%
Percent Control (kinases (468) [25]): 92%
Percent Control (kinases (468) [26]): 90%
Percent Control (kinases (468) [27]): 96%
Percent Control (kinases (468) [28]): 99%
Percent Control (kinases (468) [29]): 100%
Percent Control (kinases (468) [30]): 79%
Percent Control (kinases (468) [31]): 100%
Percent Control (kinases (468) [32]): 98%
Percent Control (kinases (468) [33]): 91%
Percent Control (kinases (468) [34]): 98%
